Test results taken from patent US20140031227A1, “HERBICIDAL COMPOSITIONS COMPRISING 4-AMINO-3-CHLORO-5-FLUORO-6-(4-CHLORO-2-FLUORO-3-METHOXYPHENYL) PYRIDINE-2-CARBOXYLIC ACID OR A DERIVATIVE THEREOF AND GLYPHOSATE OR GLUFOSINATE” (DOW AGROSCIENCES LLC, priority 2012, published 2014).
Where a name gives a salt, the structure may show the parent alone.

Assays:
Format in all cases: in vivo
[1] = system: CYPDI (Cyperus difformis L., smallflower umbrella sedge); experiment: Example I postemergence foliar-applied mixtures, direct seeded rice weeds, greenhouse: CYPDI
Experimental: Seeds or nutlets of the desired test plant species were planted in a soil matrix prepared by mixing a loam or sandy loam soil (e.g., 28.6 percent silt, 18.8 percent clay, and 52.6 percent sand, with a pH of about 5.8 and an organic matter content of about 1.8 percent) and calcareous grit in an 80 to 20 ratio. The soil matrix was contained in plastic pots with a volume of 1 quart and a surface area of 83.6 square centimeters (cm^2). […] The plants were grown for 8-22 days in a greenhouse with an approximate 14 hr photoperiod which was maintained at about 29° C. during the day and 26° C. during the night. Nutrients (Peters Excel® 15-5-15 5-Ca 2-Mg and iron chelate) were applied in the irrigation solution as needed and water was added on a regular basis. Supplemental lighting was provided with overhead metal halide 1000-Watt lamps as necessary. The plants were employed for testing when they reached the first through fourth true leaf stage.
Treatments consisted of the acid or esters of 4-amino-3-chloro-5-fluoro-6-(4-chloro-2-fluoro-3-methoxy-phenyl)pyridine-2-carboxylic acid (Compound A), each formulated as an SC (suspension concentrate), and various herbicidal components alone and in combination. Forms of compound A were applied on an acid equivalent basis.
For treatments comprised of formulated compounds, measured amounts of compounds were placed individually in 25 mL glass vials and diluted in a volume of 1.25% (v/v) Agri-Dex® crop oil concentrated to obtain 12× stock solutions. […] Application solutions were prepared by adding an appropriate amount of each stock solution (e.g., 1 mL) and diluted to the appropriate final concentrations with the addition of 10 mL of an aqueous mixture of 1.25% (v/v) crop oil concentrate so that the final spray solutions contained 1.25+/−0.05% (v/v) crop oil concentrate.
All stock solutions and applications solutions were visually inspected for compound compatibility prior to application. Spray solutions were applied to the plant material with an overhead Mandel track sprayer equipped with a 8002E nozzles calibrated to deliver 187 L/ha over an application area of 0.503 m^2 at a spray height of 18 to 20 inches (46 to 50 cm) above average plant canopy height. Control plants were sprayed in the same manner with the solvent blank.
The treated plants and control plants were placed in a greenhouse as described above and watered by sub-irrigation to prevent wash-off of the test compounds. After approximately 3 weeks, the condition of the test plants as compared with that of the untreated plants was determined visually and scored on a scale of 0 to 100 percent where 0 corresponds to no injury or growth inhibition and 100 corresponds to complete kill. […]

[2] = system: CIRAR (Cirsium arvense (L.) Scop., Canada thistle); experiment: Example IV postemergence foliar-applied mixtures, general weed control, greenhouse: CIRAR (Table 17, species inferred from b27)
Experimental: (§1) Seeds or nutlets of the desired test plant species were planted in Sun Gro Metro-Mix® 360 planting mixture, which typically has a pH of 6.0 to 6.8 and an organic matter content of about 30 percent, in plastic pots with a surface area of 84.6 square centimeters (cm^2). […] The plants were grown for 7-31 days (d) in a greenhouse with an approximate 15 hour (h) photoperiod which was maintained at about 23-29° C. during the day and 22-28° C. during the night. Nutrients (Peters Excel® 15-5-15 5-Ca 2-Mg) and water were added on a regular basis and supplemental lighting was provided with overhead metal halide 1000-Watt lamps as necessary. The plants were employed for testing when they reached the first, second, or third true leaf stage.
(§2) Treatments consisted of the acid or the benzyl ester of 4-amino-3-chloro-5-fluoro-6-(4-chloro-2-fluoro-3-methoxy-phenyl)pyridine-2-carboxylic acid (Compound A), each formulated as an SC, and various herbicidal components alone and in combination. Forms of compound A were applied on an acid equivalent basis.
(§3) Other herbicidal components were applied on an acid equivalent or active ingredient basis and included the 5-enolpyruvylshikimate-3-phosphate synthase (EPSPS)-inhibiting herbicide, glyphosate dimethylamine salt, formulated as Durango DMA® and the glutamine synthase (GS)-inhibiting herbicide, glufosinate ammonium, formulated as Ignite® 280.
(§4) For treatments comprised of formulated compounds, measured amounts of compounds were placed individually in 25 mL glass vials and diluted in a volume of 1.25% (v/v) Agri-dex crop oil concentrated to obtain 12× stock solutions. […] Application solutions were prepared by adding an appropriate amount of each stock solution (typically 1 mL) and diluted to the appropriate final concentrations with the addition of 10 mL of an aqueous mixture of 1.25% (v/v) Agri-dex crop oil concentrate so that the final spray solutions contained 1.25% (v/v) Agri-dex crop oil concentrate.
(§5) All stock solutions and applications solutions were visually inspected for compound compatibility prior to application. Compound requirements are based upon a 12 mL application volume at a rate of 187 liters per hectare (L/ha). Formulated compounds were applied to the plant material with an overhead Mandel track sprayer equipped with 8002E nozzles calibrated to deliver 187 L/ha over an application area of 0.503 square meters (m^2) at a spray height of 18 to 20 inches (46 to 50 cm) above the average plant canopy height. Control plants were sprayed in the same manner with the solvent blank.
(§6) The treated plants and control plants were placed in a greenhouse as described above and watered by sub-irrigation to prevent wash-off of the test compounds. After approximately 3 weeks, the condition of the test plants as compared with that of the untreated plants was determined visually and scored on a scale of 0 to 100 percent where 0 corresponds to no injury or growth inhibition and 100 corresponds to complete kill.
(§7) Colby's equation was used to determine the herbicidal effects expected from the mixtures (Colby, S. R. 1967. Calculation of the synergistic and antagonistic response of herbicide combinations. Weeds 15:20-22.) .

[3] = system: DIGSA (Digitaria sanguinalis (L.) Scop., large crabgrass); experiment: Example IV postemergence foliar-applied mixtures, general weed control, greenhouse: DIGSA
Experimental: as §1, §2, §3, §4, §5, §6, §7

[4] = system: ECHCG (Echinochloa crusgalli (L.) Beauv., barnyardgrass); experiment: Example IV postemergence foliar-applied mixtures, general weed control, greenhouse: ECHCG
Experimental: as §6, §7
The following equation was used to calculate the expected activity of mixtures containing two active ingredients, A and B:
A=observed efficacy of active ingredient A at the same concentration as used in the mixture.
B=observed efficacy of active ingredient B at the same concentration as used in the mixture.

[5] = system: CHEAL (Chenopodium album L., common lambsquarters); experiment: Example IV postemergence foliar-applied mixtures, general weed control, greenhouse: CHEAL
Experimental: as §1, §2, §3, §4, §5, §6, §7

[6] = system: AMARE (Amaranthus retroflexus L., redroot pigweed); experiment: Example IV postemergence foliar-applied mixtures, general weed control, greenhouse: AMARE (Table 17, species inferred from b27)
Experimental: as §1, §2, §3, §4, §5, §6, §7

[7] = Compound A Benzyl Ester 2 gae/ha alone
[8] = Compound A Benzyl Ester 4 gae/ha alone
[9] = Compound A Benzyl Ester 8 gae/ha alone
[10] = Compound A Benzyl Ester 16 gae/ha alone
[11] = Compound A Benzyl Ester 32 gae/ha alone
[12] = Compound A Benzyl Ester 2 gae/ha alone, 18 DAA
[13] = Compound A Benzyl Ester 4 gae/ha alone, 18 DAA
[14] = Compound A Benzyl Ester 8 gae/ha alone, 18 DAA
[15] = Compound A Benzyl Ester alone, 2 gae/ha
[16] = Compound A Benzyl Ester alone, 4 gae/ha
[17] = Compound A Benzyl Ester alone, 8 gae/ha
[18] = Compound A Benzyl Ester alone, 16 gae/ha
[19] = Compound A Benzyl Ester alone, 32 gae/ha
[20] = Glufosinate ammonium salt 225 gai/ha alone
[21] = Glufosinate ammonium salt 225 gai/ha alone, 18 DAA

COc1c(Cl)ccc(-c2nc(C(=O)O)c(Cl)c(N)c2F)c1F [Compound A Acid, 4-amino-3-chloro-6-(4-chloro-2-fluoro-3-methoxyphenyl)-5-fluoropyridine-2-carboxylic acid]
Visual Weed Control (%) - 21 DAA CYPDI Obs ([1]; Compound A Acid alone, 4.38 gae/ha): 50%
Visual Weed Control (%) - 21 DAA CYPDI Obs ([1]; Compound A Acid alone, 8.75 gae/ha): 85%

COc1c(Cl)ccc(-c2nc(C(=O)OCc3ccccc3)c(Cl)c(N)c2F)c1F [Compound A Benzyl Ester]
Visual Weed Control (%) - 18 DAA CIRAR Obs [2, 7]: 60%
Visual Weed Control (%) - 18 DAA CIRAR Obs [2, 8]: 70%
Visual Weed Control (%) - 18 DAA CIRAR Obs [2, 9]: 80%
Visual Weed Control (%) - 18 DAA CIRAR Obs [2, 10]: 85%
Visual Weed Control (%) - 18 DAA CIRAR Obs [2, 11]: 90%
Visual Weed Control (%) - 18 DAA DIGSA Obs [3, 12]: 0%
Visual Weed Control (%) - 18 DAA DIGSA Obs [3, 13]: 0%
Visual Weed Control (%) - 18 DAA DIGSA Obs [3, 14]: 0%
Visual Weed Control (%) - 18 DAA DIGSA Obs ([3]; Compound A Benzyl Ester 16 gae/ha alone, 18 DAA): 0%
Visual Weed Control (%) - 18 DAA DIGSA Obs ([3]; Compound A Benzyl Ester 32 gae/ha alone, 18 DAA): 30%
Visual Weed Control (%) - 18 DAA DIGSA Obs [3, 15]: 0%
Visual Weed Control (%) - 18 DAA DIGSA Obs [3, 16]: 0%
Visual Weed Control (%) - 18 DAA DIGSA Obs [3, 17]: 0%
Visual Weed Control (%) - 18 DAA DIGSA Obs [3, 18]: 0%
Visual Weed Control (%) - 18 DAA DIGSA Obs [3, 19]: 30%
Visual Weed Control (%) - 18 DAA ECHCG Obs [4, 9]: 40%
Visual Weed Control (%) - 18 DAA CHEAL Obs [5, 12]: 50%
Visual Weed Control (%) - 18 DAA CHEAL Obs [5, 13]: 70%
Visual Weed Control (%) - 18 DAA CHEAL Obs [5, 14]: 90%
Visual Weed Control (%) - 18 DAA CHEAL Obs [5, 15]: 50%
Visual Weed Control (%) - 18 DAA CHEAL Obs [5, 16]: 70%
Visual Weed Control (%) - 18 DAA CHEAL Obs [5, 17]: 90%
Visual Weed Control (%) - 18 DAA CHEAL Obs [5, 18]: 95%
Visual Weed Control (%) - 18 DAA CHEAL Obs [5, 19]: 99%
Visual Weed Control (%) - 18 DAA AMARE Obs [6, 7]: 50%
Visual Weed Control (%) - 18 DAA AMARE Obs [6, 8]: 60%
Visual Weed Control (%) - 18 DAA AMARE Obs [6, 9]: 85%
Visual Weed Control (%) - 18 DAA AMARE Obs [6, 10]: 85%
Visual Weed Control (%) - 18 DAA AMARE Obs [6, 11]: 100%

CP(=O)(O)CCC(N)C(=O)O (stereo not drawn) [Glufosinate ammonium salt, 2-amino-4-(hydroxymethylphosphinyl)butanoic acid monoammonium salt, reference compound]
Visual Weed Control (%) - 18 DAA CIRAR Obs [2, 20]: 15%
Visual Weed Control (%) - 18 DAA DIGSA Obs [3, 21]: 25%
Visual Weed Control (%) - 18 DAA ECHCG Obs ([4]; Glufosinate ammonium salt 112.5 gai/ha alone): 0%
Visual Weed Control (%) - 18 DAA ECHCG Obs [4, 20]: 0%
Visual Weed Control (%) - 18 DAA ECHCG Obs ([4]; Glufosinate ammonium salt 450 gai/ha alone): 10%
Visual Weed Control (%) - 18 DAA CHEAL Obs ([5]; Glufosinate ammonium salt 112.5 gai/ha alone, 18 DAA): 0%
Visual Weed Control (%) - 18 DAA CHEAL Obs [5, 21]: 10%
Visual Weed Control (%) - 18 DAA CHEAL Obs ([5]; Glufosinate ammonium salt 450 gai/ha alone, 18 DAA): 30%
Visual Weed Control (%) - 18 DAA AMARE Obs [6, 20]: 50%
Visual Weed Control (%) - 21 DAA CYPDI Obs ([1]; glufosinate ammonium alone, 135.5 gae/ha): 0%
Visual Weed Control (%) - 21 DAA CYPDI Obs ([1]; glufosinate ammonium alone, 271 gae/ha): 0%
